Laboratory results published in the supplement of paper PMC10307832.

Key:
Experiment in all cases: relative viability (nuclei count vs DMSO), 5 days (fraction); higher = more cells survive
EKVX = system: EKVX
How it was run: (§1)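 Lung cancer cell lines were pin-tool dosed in 1536-well plates on the day after seeding, with either a lone drug or a fixed anchor-drug dose plus five library-drug doses (not always all listed) in √10 steps. Nuclei were counted on 4× images after 5 days. Relative viability is the ratio of treated-well to vehicle-well nuclei counts, with each value a median of duplicate plates.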

NCI-H727 = system: NCI-H727
How it was run: as §1

NCI-H661 = system: NCI-H661
How it was run: as §1

CAL-12T = system: CAL-12T
How it was run: as §1

201T = system: 201T
How it was run: as §1

SW 900 = system: SW 900
How it was run: as §1

NCI-H441 = system: NCI-H441
How it was run: as §1

LOU-NH91 = system: LOU-NH91
How it was run: as §1

NCI-H1650 = system: NCI-H1650
How it was run: as §1

BEN = system: BEN
How it was run: as §1

PC-14 = system: PC-14
How it was run: as §1

NCI-H2009 = system: NCI-H2009
How it was run: as §1

COR-L 105 = system: COR-L 105
How it was run: as §1

HARA = system: HARA
How it was run: as §1

NCI-H460 = system: NCI-H460
How it was run: as §1

NCI-H2170 = system: NCI-H2170
How it was run: as §1

LK-2 = system: LK-2
How it was run: as §1

NCI-H1437 = system: NCI-H1437
How it was run: as §1

NCI-H3122 = system: NCI-H3122
How it was run: as §1

HCC-366 = system: HCC-366
How it was run: as §1

NCI-H1666 = system: NCI-H1666
How it was run: as §1

## O=c1cc(N2CCOCC2)oc2c(-c3cccc4c3sc3ccccc34)cccc12 + CC(=O)Nc1cccc(-n2c(=O)n(C3CC3)c(=O)c3c(Nc4ccc(I)cc4F)n(C)c(=O)c(C)c32)c1 [Trametinib] (partner 0.02 µM)
EKVX; first compound 0.01 µM
  relative viability: 0.299
EKVX; first compound 0.03162 µM
  relative viability: 0.312
EKVX; first compound 0.1 µM
  relative viability: 0.337
EKVX; first compound 0.3162 µM
  relative viability: 0.321
EKVX; first compound 1 µM
  relative viability: 0.303
NCI-H727; first compound 0.01 µM
  relative viability: 0.38
NCI-H727; first compound 0.03162 µM
  relative viability: 0.372
NCI-H727; first compound 0.1 µM
  relative viability: 0.389
NCI-H727; first compound 0.3162 µM
  relative viability: 0.391
NCI-H727; first compound 1 µM
  relative viability: 0.37
NCI-H661; first compound 0.01 µM
  relative viability: 0.541
NCI-H661; first compound 0.03162 µM
  relative viability: 0.587
NCI-H661; first compound 0.1 µM
  relative viability: 0.674
NCI-H661; first compound 0.3162 µM
  relative viability: 0.581
NCI-H661; first compound 1 µM
  relative viability: 0.603
CAL-12T; first compound 0.01 µM
  relative viability: 0.334
CAL-12T; first compound 0.03162 µM
  relative viability: 0.417
CAL-12T; first compound 0.1 µM
  relative viability: 0.354
CAL-12T; first compound 0.3162 µM
  relative viability: 0.381
CAL-12T; first compound 1 µM
  relative viability: 0.363
201T; first compound 0.01 µM
  relative viability: 0.708
201T; first compound 0.03162 µM
  relative viability: 0.683
201T; first compound 0.1 µM
  relative viability: 0.69
201T; first compound 0.3162 µM
  relative viability: 0.721
201T; first compound 1 µM
  relative viability: 0.701
SW 900; first compound 0.03162 µM
  relative viability: 0.922
SW 900; first compound 0.1 µM
  relative viability: 0.949
SW 900; first compound 0.3162 µM
  relative viability: 0.858
SW 900; first compound 1 µM
  relative viability: 0.82
NCI-H441; first compound 0.01 µM
  relative viability: 0.513
NCI-H441; first compound 0.03162 µM
  relative viability: 0.431
NCI-H441; first compound 0.1 µM
  relative viability: 0.406
NCI-H441; first compound 0.3162 µM
  relative viability: 0.479
NCI-H441; first compound 1 µM
  relative viability: 0.42
LOU-NH91; first compound 0.01 µM
  relative viability: 0.801
LOU-NH91; first compound 0.03162 µM
  relative viability: 0.798
LOU-NH91; first compound 0.1 µM
  relative viability: 0.782
LOU-NH91; first compound 0.3162 µM
  relative viability: 0.821
LOU-NH91; first compound 1 µM
  relative viability: 0.767
NCI-H1650; first compound 0.01 µM
  relative viability: 0.526
NCI-H1650; first compound 0.03162 µM
  relative viability: 0.643
NCI-H1650; first compound 0.1 µM
  relative viability: 0.782
NCI-H1650; first compound 0.3162 µM
  relative viability: 0.571
NCI-H1650; first compound 1 µM
  relative viability: 0.517
BEN; first compound 0.01 µM
  relative viability: 1.06
BEN; first compound 0.03162 µM
  relative viability: 1.07
BEN; first compound 0.1 µM
  relative viability: 1.06
BEN; first compound 0.3162 µM
  relative viability: 1.01
BEN; first compound 1 µM
  relative viability: 0.943
PC-14; first compound 0.01 µM
  relative viability: 0.843
PC-14; first compound 0.03162 µM
  relative viability: 0.744
PC-14; first compound 0.1 µM
  relative viability: 0.745
PC-14; first compound 0.3162 µM
  relative viability: 0.775
PC-14; first compound 1 µM
  relative viability: 0.832
NCI-H2009; first compound 0.01 µM
  relative viability: 0.315
NCI-H2009; first compound 0.03162 µM
  relative viability: 0.294
NCI-H2009; first compound 0.1 µM
  relative viability: 0.255
NCI-H2009; first compound 0.3162 µM
  relative viability: 0.279
NCI-H2009; first compound 1 µM
  relative viability: 0.212
COR-L 105; first compound 0.01 µM
  relative viability: 0.414
COR-L 105; first compound 0.03162 µM
  relative viability: 0.427
COR-L 105; first compound 0.1 µM
  relative viability: 0.446
COR-L 105; first compound 0.3162 µM
  relative viability: 0.451
COR-L 105; first compound 1 µM
  relative viability: 0.429
HARA; first compound 0.01 µM
  relative viability: 0.377
HARA; first compound 0.03162 µM
  relative viability: 0.828
HARA; first compound 0.1 µM
  relative viability: 0.688
HARA; first compound 0.3162 µM
  relative viability: 0.621
HARA; first compound 1 µM
  relative viability: 0.649
NCI-H460; first compound 0.01 µM
  relative viability: 0.104
NCI-H460; first compound 0.03162 µM
  relative viability: 0.127
NCI-H460; first compound 0.1 µM
  relative viability: 0.185
NCI-H460; first compound 0.3162 µM
  relative viability: 0.197
NCI-H460; first compound 1 µM
  relative viability: 0.12
NCI-H2170; first compound 0.01 µM
  relative viability: 0.895
NCI-H2170; first compound 0.03162 µM
  relative viability: 0.897
NCI-H2170; first compound 0.1 µM
  relative viability: 0.982
NCI-H2170; first compound 0.3162 µM
  relative viability: 0.801
NCI-H2170; first compound 1 µM
  relative viability: 0.889
LK-2; first compound 0.01 µM
  relative viability: 0.808
LK-2; first compound 0.03162 µM
  relative viability: 0.807
LK-2; first compound 0.1 µM
  relative viability: 0.957
LK-2; first compound 0.3162 µM
  relative viability: 0.515
LK-2; first compound 1 µM
  relative viability: 0.902
NCI-H1437; first compound 0.01 µM
  relative viability: 0.693
NCI-H1437; first compound 0.03162 µM
  relative viability: 0.548
NCI-H1437; first compound 0.1 µM
  relative viability: 0.531
NCI-H1437; first compound 0.3162 µM
  relative viability: 0.508
NCI-H1437; first compound 1 µM
  relative viability: 0.502
NCI-H3122; first compound 0.01 µM
  relative viability: 0.217
NCI-H3122; first compound 0.03162 µM
  relative viability: 0.225
NCI-H3122; first compound 0.1 µM
  relative viability: 0.245
NCI-H3122; first compound 0.3162 µM
  relative viability: 0.216
NCI-H3122; first compound 1 µM
  relative viability: 0.202
HCC-366; first compound 0.01 µM
  relative viability: 0.411
HCC-366; first compound 0.03162 µM
  relative viability: 0.355
HCC-366; first compound 0.1 µM
  relative viability: 0.36
HCC-366; first compound 0.3162 µM
  relative viability: 0.333
HCC-366; first compound 1 µM
  relative viability: 0.322
NCI-H1666; first compound 0.01 µM
  relative viability: 0.882
NCI-H1666; first compound 0.03162 µM
  relative viability: 0.829
NCI-H1666; first compound 0.1 µM
  relative viability: 0.84
NCI-H1666; first compound 0.3162 µM
  relative viability: 0.814
NCI-H1666; first compound 1 µM
  relative viability: 0.849
